Results from patent publication US12479834B2, “Phenol compound or salt thereof” (TAIHO PHARMACEUTICAL CO., LTD., priority 2019, dated 2025).

Key:
NCI-H358 cells = assay: Growth inhibition of KRAS-G12C mutant cell line NCI-H358 (CellTiter-Glo 2.0); format: cell-based; conditions: Homo sapiens, 72 h; NCI-H358, 3-day culture with compound
Description: KRAS-G12C mutant human lung cancer cell line NCI-H358 cells (ATCC, Cat #: CRL-5807) were suspended in RPMI1640 medium (manufactured by Fujifilm Wako Pure Chemical Corp.) containing 10% fetal bovine serum. The cell suspension was seeded at 500 cells/well into the wells of a 384-well flat-bottom microplate and cultured at 37° C. for 1 day in an incubator containing 5% CO2. The compound of the present invention was dissolved in DMSO and diluted with DMSO such that the concentration of the test compound was 500 times the final concentration. The solution of the test compound in DMSO was diluted with the medium used for suspending the cells, and the resultant was added to each well of the cell culture plate such that the final concentration of DMSO was 0.2%, followed by culture at 37° C. for another 3 days in an incubator containing 5% CO2.
Growth inhibition rate (%)=(C−T)/(C)×100 • T: the emission intensity in a well supplemented with the test compound. • C: the emission intensity in a well not supplemented with the test compound.

KRAS G12C mutant = target: T1, KRAS G12C mutant (Homo sapiens, UniProt P01116, G12C); assay: Inhibition of SOS1-mediated nucleotide (GDP-GTP) exchange reaction of KRAS G12C mutant, BODIPY FL GDP fluorescence; format: biochemical; conditions: preincubated 25° C. 4 hours with 25 nM KRAS G12C bound with BODIPY FL GDP; SOS1 100 nM, GppNHp 1 μM, 30 minutes
T1 construct: 50 μM G12C K-Ras4B (1-169) protein and 1 mM BODIPY® FL GDP; His tag (N, cleaved yes); made in house; host or cells: E. coli BL21 (DE3)
Outline: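 KRAS G12C (1-169) loaded with BODIPY FL GDP (25 nM) was preincubated with compound (5% DMSO) for 4 h at 25 °C. Exchange then ran 30 min with SOS1 (564-1049, 100 nM) and 1 µM GppNHp. IC50 came from the 485/520 nm fluorescence change, normalized to DMSO and no-GppNHp controls.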

G12C K-Ras4B (1-169) = target: T2, G12C K-Ras4B (1-169) (Homo sapiens, UniProt P01116, G12C); assay: Binding to KRAS G12C mutant, compound binding rate by LC-MS; conditions: final compound concentration 2 μM, 1 μM protein, 2 hours at 25° C.
T2 construct: G12C K-Ras4B (1-169) protein, which was a KRAS G12C mutant; His tag (N, cleaved yes); made in house; host or cells: E. coli BL21 (DE3)
Outline: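 Covalent labelling at 2 μM final compound on a mix of 1 μM each wild-type and G12C K-Ras4B (1-169) (E. coli-expressed, tag removed) in 1×TBS, 0.1 mM TCEP, 2 h at 25° C., quenched with formic acid. Intact-protein ESI Q-TOF LC-MS; binding rate from adduct vs unbound protein signal, graded A–E in 20% bands.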

Compound | IC50 (NCI-H358 cells) [nM] | IC50 (KRAS G12C mutant) [nM] | binding rate for G12C K-Ras4B (1-169) (G12C K-Ras4B (1-169))
C=CC(=O)N1CC(NC(=O)c2ccc(CNc3cc(C(C)(C)C)c(Cl)cc3O)o2)C1 [Example 1, N-(1-Acryloylazetidin-3-yl)-5-(((5-(tert-butyl)-4-chloro-2-hydroxyphenyl)amino)methyl)furan-2-carboxamide] | 4110 | 326 | A (80% or more)
C=CC(=O)N1CC(N(C)C(=O)c2ccc(CNc3cc(C(C)(C)C)c(Cl)cc3O)o2)C1 [Example 4, N-(1-Acryloylazetidin-3-yl)-5-(((5-(tert-butyl)-4-chloro-2-hydroxyphenyl)amino)methyl)-N-methylfuran-2-carboxamide] | 1170 | 11 | A (80% or more)
C=CC(=O)N1CC(N(CC)C(=O)c2ccc(CNc3cc(C(C)(C)C)c(Cl)cc3O)o2)C1 [Example 5, N-(1-Acryloylazetidin-3-yl)-5-(((5-(tert-butyl)-4-chloro-2-hydroxyphenyl)amino)methyl)-N-ethylfuran-2-carboxamide] | 699 | 12 | A (80% or more)
C=CC(=O)N1CC(NC(=O)c2cnc(CNc3cc(C(C)(C)C)c(Cl)cc3O)n2C)C1 [Example 18, N-(1-Acryloylazetidin-3-yl)-2-(((5-(tert-butyl)-4-chloro-2-hydroxyphenyl)amino)methyl)-1-methyl-1H-imidazole-5-carboxamide] | 562 | 11 | A (80% or more)
C=CC(=O)N1CC(NC(=O)c2sc(CNc3cc(C(C)(C)C)c(Cl)cc3O)nc2C)C1 [Example 20, N-(1-Acryloylazetidin-3-yl)-2-(((5-(tert-butyl)-4-chloro-2-hydroxyphenyl)amino)methyl)-4-methylthiazole-5-carboxamide] | 658 | 13 | A (80% or more)
C=CC(=O)N1CC(N(C)C(=O)c2nc(CNc3cc(C(C)(C)C)c(Cl)cc3O)cs2)C1 [Example 29, N-(1-Acryloylazetidin-3-yl)-4-(((5-(tert-butyl)-4-chloro-2-hydroxyphenyl)amino)methyl)-N-methylthiazole-2-carboxamide] | 1110 | 12 | A (80% or more)
C=CC(=O)N1CC(NC(=O)c2cnc(CNc3cc(C(C)(C)C)c(Cl)cc3O)n2CCOC)C1 [Example 37, N-(1-Acryloylazetidin-3-yl)-2-(((5-(tert-butyl)-4-chloro-2-hydroxyphenyl)amino)methyl)-1-(2-methoxyethyl)-1H-imidazole-5-carboxamide] | 321 | 13 | A (80% or more)
C=CC(=O)N1CC(NC(=O)c2cnc(CNc3cc(C(C)(C)C)c(Cl)cc3O)n2CCN(C)C)C1 [Example 38, N-(1-Acryloylazetidin-3-yl)-2-(((5-(tert-butyl)-4-chloro-2-hydroxyphenyl)amino)methyl)-1-(2-(dimethylamino)ethyl)-1H-imidazole-5-carboxamide] | 708 | 9 | A (80% or more)
C=CC(=O)N1CC(NC(=O)c2c(C)nc(CNc3cc(C(C)(C)C)c(Cl)cc3O)n2C)C1 [Example 39, N-(1-Acryloylazetidin-3-yl)-2-(((5-(tert-butyl)-4-chloro-2-hydroxyphenyl)amino)methyl)-1,4-dimethyl-1H-imidazole-5-carboxamide] | 112 | 5 | A (80% or more)

The next lines start with the values.

IC50 (NCI-H358 cells) [nM] | IC50 (KRAS G12C mutant) [nM] | binding rate for G12C K-Ras4B (1-169) (G12C K-Ras4B (1-169)) | Compound
535 | 13 | A (80% or more) | C=CC(=O)N1CC(NC(=O)c2c(C)nc(CNc3cc(C(C)(C)C)c(Cl)cc3O)n2Cc2ccccc2)C1 [Example 40, N-(1-Acryloylazetidin-3-yl)-1-benzyl-2-(((5-(tert-butyl)-4-chloro-2-hydroxyphenyl)amino)methyl)-4-methyl-1H-imidazole-5-carboxamide]
281 | 8 | A (80% or more) | C=CC(=O)N1CC(NC(=O)c2c(C)nc(CNc3cc(C(C)(C)C)c(Cl)cc3O)n2CC)C1 [Example 41, N-(1-Acryloylazetidin-3-yl)-2-(((5-(tert-butyl)-4-chloro-2-hydroxyphenyl)amino)methyl)-1-ethyl-4-methyl-1H-imidazole-5-carboxamide]
 | 549 | D (20% or more and less than 40%) | C=CC(=O)N1CC(NC(=O)c2cnc(CCc3cc(C(C)(C)C)c(Cl)cc3O)n2C)C1 [Example 90, N-(1-Acryloylazetidin-3-yl)-2-(5-(tert-butyl)-4-chloro-2-hydroxyphenethyl)-1-methyl-1H-imidazole-5-carboxamide]
 | 128 | D (20% or more and less than 40%) | C=CC(=O)N1CC(NC(=O)c2c(C)nc(C(O)c3cc(C(C)(C)C)c(Cl)cc3O)n2C)C1 (stereo not shown) [Example 91, N-(1-Acryloylazetidin-3-yl)-2-((5-(tert-butyl)-4-chloro-2-hydroxyphenyl) (hydroxy)methyl)-1,4-dimethyl-1H-imidazole-5-carboxamide]
 | 500 | E (less than 20%) | C=CC(=O)N1CC(NC(=O)c2c(C)nc(C(O)c3cc(C(C)(C)C)c(F)cc3O)n2C)C1 (stereo not shown) [Example 93, N-(1-Acryloylazetidin-3-yl)-2-((5-(tert-butyl)-4-fluoro-2-hydroxyphenyl) (hydroxy)methyl)-1,4-dimethyl-1H-imidazole-5-carboxamide]
 | 170 | C (40% or more and less than 60%) | C=CC(=O)N1CC(NC(=O)c2c(C)nc(Cc3cc(C(C)(C)C)c(F)cc3O)n2C)C1 [Example 94, N-(1-Acryloylazetidin-3-yl)-2-(5-(tert-butyl)-4-fluoro-2-hydroxybenzyl)-1,4-dimethyl-1H-imidazole-5-carboxamide]
 | 467 | C (40% or more and less than 60%) | C=CC(=O)N1CC(NC(=O)c2sc(Cc3cc(C(C)(C)C)c(Cl)cc3O)nc2C)C1 [Example 95, N-(1-Acryloylazetidin-3-yl)-2-(5-(tert-butyl)-4-chloro-2-hydroxybenzyl)-4-methylthiazole-5-carboxamide]
 | 205 | B (60% or more and less than 80%) | C=CC(=O)N1CC(NC(=O)c2cnc(C(O)c3cc(C(C)(C)C)c(Cl)cc3O)n2C)C1 (stereo not shown) [Example 98, N-(1-Acryloylazetidin-3-yl)-2-((5-(tert-butyl)-4-chloro-2-hydroxyphenyl) (hydroxy)methyl)-1-methyl-1H-imidazole-5-carboxamide]
 | > 10000 | E (less than 20%) | C=CC(=O)N1CC(NC(=O)c2ccc(CNc3cc(C(C)(C)C)c(Cl)cc3OC)o2)C1 [Reference Example1, N-(1-Acryloylazetidin-3-yl)-5-(((5-(tert-butyl)-4-chloro-2-methoxyphenyl)amino)methyl)furan-2-carboxamide, reference compound]
 | > 10000 | E (less than 20%) | C=CC(=O)N1CC(NC(=O)c2ccc(CNc3ccc(Cl)c(C(C)(C)C)c3)o2)C1 [Reference Example2, N-(1-Acryloylazetidin-3-yl)-5-(((3-(tert-butyl)-4-chlorophenyl)amino)methyl)furan-2-carboxamide, reference compound]
